Reference: US20120071475A1, “UREA DERIVATIVES HAVING PI3K-INHIBITING ACTIVITY” (SHIONOGI & CO., LTD., priority 2009, published 2012)
≈ marks a conversion by molar mass, not a printed value. Where two headings read alike, the source gives them in different places.

How the values were obtained:
PI3Kγ [1] = target: T1, PI3Kγ (Homo sapiens, UniProt P48736); test: PI3Kγ inhibitory activity (PI3-kinase HTRF assay, inhibition ratio); type: biochemical; conditions: 0.5 h, compound at 10 μmol/L; read-out: PI3Kg Inhibition Ratio % (10 μM)
T1 sequence (P48736 whole entry, species assumed): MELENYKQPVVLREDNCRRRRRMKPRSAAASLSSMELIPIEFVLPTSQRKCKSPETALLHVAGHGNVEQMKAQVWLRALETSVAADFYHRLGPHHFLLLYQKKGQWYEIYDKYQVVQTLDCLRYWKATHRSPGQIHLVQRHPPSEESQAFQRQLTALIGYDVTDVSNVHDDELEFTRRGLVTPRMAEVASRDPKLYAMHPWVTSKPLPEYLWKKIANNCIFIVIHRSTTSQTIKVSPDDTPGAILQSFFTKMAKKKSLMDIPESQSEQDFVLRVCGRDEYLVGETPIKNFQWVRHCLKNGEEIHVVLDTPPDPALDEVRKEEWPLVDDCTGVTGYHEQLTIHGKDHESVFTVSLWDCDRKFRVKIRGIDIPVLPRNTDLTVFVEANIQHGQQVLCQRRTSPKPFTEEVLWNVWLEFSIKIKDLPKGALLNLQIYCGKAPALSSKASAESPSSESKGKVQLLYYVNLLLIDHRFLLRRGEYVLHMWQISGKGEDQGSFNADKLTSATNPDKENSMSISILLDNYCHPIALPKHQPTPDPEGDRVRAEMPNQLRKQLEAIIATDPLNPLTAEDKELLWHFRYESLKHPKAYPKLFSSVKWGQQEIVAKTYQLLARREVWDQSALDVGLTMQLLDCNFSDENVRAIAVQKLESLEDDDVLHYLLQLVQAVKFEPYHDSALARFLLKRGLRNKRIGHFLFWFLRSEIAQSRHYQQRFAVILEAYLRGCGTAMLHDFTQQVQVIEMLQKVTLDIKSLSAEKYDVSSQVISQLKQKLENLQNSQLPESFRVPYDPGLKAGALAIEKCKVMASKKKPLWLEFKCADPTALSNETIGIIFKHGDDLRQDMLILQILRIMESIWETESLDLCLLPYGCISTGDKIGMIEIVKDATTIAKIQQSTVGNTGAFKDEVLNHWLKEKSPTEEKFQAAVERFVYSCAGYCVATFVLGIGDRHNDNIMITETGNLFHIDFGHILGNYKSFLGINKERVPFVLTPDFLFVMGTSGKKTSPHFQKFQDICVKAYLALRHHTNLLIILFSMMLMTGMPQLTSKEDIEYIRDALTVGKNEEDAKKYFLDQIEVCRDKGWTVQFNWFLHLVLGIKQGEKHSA
How it was run: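 Compound at 10 μmol/L preincubated 10 min with PI3Kγ and PIP2 substrate, then reacted with ATP for 30 minutes at room temperature; the compound, substrate and ATP figures as printed (40 μmol/L each) are solution concentrations. HTRF 665/620 nm ratio read after 18 hours. Inhibition ratio calculated against no-compound (100%) and no-enzyme (0%) controls.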

[2] = Solubility test (artificial intestinal juice pH 6.8, 1% DMSO); type: physicochemical; conditions: artificial intestinal juice pH 6.8 with 1% DMSO, fassgf or other biorelevant, kinetic from dmso stock, 25° C.
Procedure: The solubility of a compound was determined under a condition in which 1% DMSO was added. 10 mmol/L compound solution was prepared using DMSO, and then 6 μL of the compound solution was added to 594 μL of artificial intestinal juice in pH 6.8 (to 250 mL of 0.2 mol/L potassium dihydrogen phosphate reagent solution was added 118 mL of 0.2 mol/L NaOH reagent solution and water to provide a final volume of 1000 mL). After standing at 25° C. for 16 hours, the mixed solution was filtered with suction. The filtrate was diluted twice with methanol/water (1/1), and then a concentration in the filtration was measured with HPLC or LC/MS/MS by the absolute calibration method.

[3] = Metabolic stability test (pooled human liver microsome); type: in vitro ADME; conditions: percentage of test compound remained after 30 minutes, pooled human liver microsome 0.5 mg protein/mL, 1 mmol/L NADPH, 37° C.; for hLMS_ox(at 0.5 μM) %: compound 0.5 μM
How it was run: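 Pooled human liver microsomes (0.5 mg protein/mL) incubated with compound and 1 mmol/L NADPH at 37° C. in pH 7.4 Tris buffer for 0 or 30 min. Parent quantified by LC/MS/MS after methanol/acetonitrile quench; value is % remaining at 30 min versus 0 min.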

PI3Kγ [4] = target: T1, PI3Kγ; test: PI3Kγ inhibitory activity (Ki value); type: biochemical
Procedure: The PI3Kγ inhibitory activity (Ki value) of a compound was evaluated according to the following procedure:
5 μL of a compound solution containing 10% DMSO and […] of a compound was changed to 5 μL of a compound solution containing 10% DMSO and either 200, 64, 20, 6.4, 2, 0.64, or 0.20 μmol/L of the compound (optionally, this is diluted to a lower concentration). Using a method similar to the method for measuring PI3Kγ inhibitory activity, inhibition ratios of PI3Kγ were measured in the presence of the compound at 50, 16, 5, 1.6, 0.5, 0.16, and 0.05 μmol/L (optionally, a lower concentration). Then an IC50 value was calculated by a logistic approximation method or the linear regression method using two concentrations that cross 50% inhibition. Separately, the ATP concentration in the reaction solution (40 μmol/L ATP, 10 mmol/L MgCl2, 5 mmol/L DTT) at the time of the start of a reaction in the absence of the compound was changed to 80, 40, 20, 10, 5, 2.5, 1.25, or 0.625 μmol/L. Then, HTRF ratios were measured by a similar method. The value obtained by subtracting the HTRF ratio at each ATP concentration from the HTRF ratio in the absence of PI-3 kinase y was defined as the value obtained by multiplying reaction rate (v) at each ATP concentration with a constant. The Michaelis-Menten constant Km was then calculated by the Lineweaver-Burk plot method. The Ki value of a compound was calculated by the following formula wherein “μM” denotes “μmol/L.”
Ki value ═IC50 value/(1+test ATP concentration (μM)/Km (μM))

PI3Kα = PI3Kα (Homo sapiens, UniProt P42336); test: PI3Kα inhibitory activity (Ki value); type: biochemical
Sequence of PI3Kα (P42336 whole entry, species assumed): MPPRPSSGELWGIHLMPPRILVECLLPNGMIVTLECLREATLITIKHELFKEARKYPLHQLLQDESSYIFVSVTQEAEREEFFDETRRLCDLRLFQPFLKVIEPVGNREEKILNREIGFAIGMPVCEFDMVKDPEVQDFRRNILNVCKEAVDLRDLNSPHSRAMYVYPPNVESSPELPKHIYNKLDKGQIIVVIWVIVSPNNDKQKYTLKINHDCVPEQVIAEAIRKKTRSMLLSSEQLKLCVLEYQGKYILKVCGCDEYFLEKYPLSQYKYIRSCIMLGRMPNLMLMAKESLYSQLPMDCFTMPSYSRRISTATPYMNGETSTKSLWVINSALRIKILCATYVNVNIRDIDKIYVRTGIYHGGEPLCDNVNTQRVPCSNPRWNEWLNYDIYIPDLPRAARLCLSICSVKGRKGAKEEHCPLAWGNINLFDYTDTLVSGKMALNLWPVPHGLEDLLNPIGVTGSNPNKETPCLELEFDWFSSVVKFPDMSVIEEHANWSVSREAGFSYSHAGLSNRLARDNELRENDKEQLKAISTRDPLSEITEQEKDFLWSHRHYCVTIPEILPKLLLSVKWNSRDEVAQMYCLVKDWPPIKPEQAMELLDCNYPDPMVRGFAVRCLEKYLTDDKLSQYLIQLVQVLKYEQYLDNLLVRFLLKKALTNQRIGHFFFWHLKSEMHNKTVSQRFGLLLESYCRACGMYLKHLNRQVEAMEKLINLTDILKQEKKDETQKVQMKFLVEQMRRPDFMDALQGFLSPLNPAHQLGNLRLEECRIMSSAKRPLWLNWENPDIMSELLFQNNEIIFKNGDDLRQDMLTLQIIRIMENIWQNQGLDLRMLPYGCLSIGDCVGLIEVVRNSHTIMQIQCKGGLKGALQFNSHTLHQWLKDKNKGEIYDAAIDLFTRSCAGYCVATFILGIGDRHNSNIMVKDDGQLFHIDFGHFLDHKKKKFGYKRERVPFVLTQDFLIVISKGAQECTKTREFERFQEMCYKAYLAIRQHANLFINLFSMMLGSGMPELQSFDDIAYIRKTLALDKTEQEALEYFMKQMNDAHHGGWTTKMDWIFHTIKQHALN
Sequence of PI3Kα (P27986 whole entry partner, species assumed): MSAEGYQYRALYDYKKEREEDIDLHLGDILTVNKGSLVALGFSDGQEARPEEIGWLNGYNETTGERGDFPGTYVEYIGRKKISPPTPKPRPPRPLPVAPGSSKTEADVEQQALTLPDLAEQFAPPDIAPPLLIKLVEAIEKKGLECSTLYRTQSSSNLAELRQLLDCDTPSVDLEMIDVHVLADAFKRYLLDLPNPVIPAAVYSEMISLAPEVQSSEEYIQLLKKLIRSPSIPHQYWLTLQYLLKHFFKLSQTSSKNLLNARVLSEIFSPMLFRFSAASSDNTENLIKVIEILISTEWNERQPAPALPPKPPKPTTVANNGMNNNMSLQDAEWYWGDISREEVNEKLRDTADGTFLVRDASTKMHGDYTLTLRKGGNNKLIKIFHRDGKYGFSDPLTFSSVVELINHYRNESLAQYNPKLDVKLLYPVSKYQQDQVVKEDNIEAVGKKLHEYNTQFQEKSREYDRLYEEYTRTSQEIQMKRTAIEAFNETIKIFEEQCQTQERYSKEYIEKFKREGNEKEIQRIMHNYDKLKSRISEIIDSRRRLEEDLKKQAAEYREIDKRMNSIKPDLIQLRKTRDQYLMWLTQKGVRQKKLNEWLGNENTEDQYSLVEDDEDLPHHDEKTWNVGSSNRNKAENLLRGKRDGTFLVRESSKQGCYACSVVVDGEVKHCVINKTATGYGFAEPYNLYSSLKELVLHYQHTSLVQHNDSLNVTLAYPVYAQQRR
Procedure: (§1) According to Example 2 above, after 80 μg/mL PI-3 kinase γ of the enzyme solution (80 μg/mL PI-3 kinase γ, 10 mmol/L MgCl2, 5 mmol/L DTT) was changed to 0.8 μg/mL PI-3 kinase α, an inhibition ratio was calculated by a method similar to the method for measuring PI3Kγ inhibitory activity, and then defined as the PI3Kα inhibitory activity.
The α inhibitory activity (Ki value) of a compound was evaluated according to the following procedure.
According to Example 4 above, a Km value for PI3Kα was determined to calculate a Ki value.

PI3Kβ = PI3Kβ (Homo sapiens, UniProt P42338); test: PI3Kβ inhibitory activity (Ki value); type: biochemical
Sequence of PI3Kβ (P42338 whole entry, species assumed): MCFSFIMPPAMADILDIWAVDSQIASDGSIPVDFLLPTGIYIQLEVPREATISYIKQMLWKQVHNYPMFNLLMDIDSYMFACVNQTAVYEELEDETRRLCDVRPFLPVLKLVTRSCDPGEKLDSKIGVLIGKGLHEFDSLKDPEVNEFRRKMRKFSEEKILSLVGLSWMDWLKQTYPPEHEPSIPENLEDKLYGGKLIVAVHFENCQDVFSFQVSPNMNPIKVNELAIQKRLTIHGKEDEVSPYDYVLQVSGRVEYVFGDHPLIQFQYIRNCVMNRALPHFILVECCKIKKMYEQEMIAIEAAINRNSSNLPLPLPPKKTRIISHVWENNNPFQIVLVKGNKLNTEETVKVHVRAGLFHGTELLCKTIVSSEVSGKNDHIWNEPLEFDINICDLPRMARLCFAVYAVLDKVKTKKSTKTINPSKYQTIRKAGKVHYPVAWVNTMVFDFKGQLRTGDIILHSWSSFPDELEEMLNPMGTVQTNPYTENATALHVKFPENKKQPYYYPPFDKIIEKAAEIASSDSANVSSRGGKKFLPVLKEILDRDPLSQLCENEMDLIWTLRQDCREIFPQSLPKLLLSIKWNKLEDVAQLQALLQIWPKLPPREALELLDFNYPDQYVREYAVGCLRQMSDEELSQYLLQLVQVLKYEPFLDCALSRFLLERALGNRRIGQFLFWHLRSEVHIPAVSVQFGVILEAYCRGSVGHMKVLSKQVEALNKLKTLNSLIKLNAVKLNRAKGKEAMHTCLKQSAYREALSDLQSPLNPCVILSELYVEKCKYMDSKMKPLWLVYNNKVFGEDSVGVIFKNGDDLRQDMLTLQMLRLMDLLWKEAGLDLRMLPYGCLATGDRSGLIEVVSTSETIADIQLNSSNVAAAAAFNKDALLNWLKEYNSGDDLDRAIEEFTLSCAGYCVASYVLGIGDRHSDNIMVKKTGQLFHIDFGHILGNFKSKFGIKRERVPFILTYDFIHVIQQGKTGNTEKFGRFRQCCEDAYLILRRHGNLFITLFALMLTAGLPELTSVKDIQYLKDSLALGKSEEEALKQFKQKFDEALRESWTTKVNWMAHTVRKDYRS
Sequence of PI3Kβ (P27986 whole entry partner, species assumed): as the sequence (P27986 whole entry partner, species assumed) above
Procedure: as §1, with “60” for “0.8”, “β,” for “α, an inhibition ratio was calculated by”, “activity was used to calculate an inhibition ratio, which was” for “activity, and then”, “PI3Kβ” for “PI3Kα”
According to Example 4 above, a Km value for PI3Kβ was determined to calculate a Ki value.

PI3Kδ = PI3Kδ (Homo sapiens, UniProt O00329); test: PI3Kδ inhibitory activity (Ki value); type: biochemical
Sequence of PI3Kδ (O00329 whole entry, species assumed): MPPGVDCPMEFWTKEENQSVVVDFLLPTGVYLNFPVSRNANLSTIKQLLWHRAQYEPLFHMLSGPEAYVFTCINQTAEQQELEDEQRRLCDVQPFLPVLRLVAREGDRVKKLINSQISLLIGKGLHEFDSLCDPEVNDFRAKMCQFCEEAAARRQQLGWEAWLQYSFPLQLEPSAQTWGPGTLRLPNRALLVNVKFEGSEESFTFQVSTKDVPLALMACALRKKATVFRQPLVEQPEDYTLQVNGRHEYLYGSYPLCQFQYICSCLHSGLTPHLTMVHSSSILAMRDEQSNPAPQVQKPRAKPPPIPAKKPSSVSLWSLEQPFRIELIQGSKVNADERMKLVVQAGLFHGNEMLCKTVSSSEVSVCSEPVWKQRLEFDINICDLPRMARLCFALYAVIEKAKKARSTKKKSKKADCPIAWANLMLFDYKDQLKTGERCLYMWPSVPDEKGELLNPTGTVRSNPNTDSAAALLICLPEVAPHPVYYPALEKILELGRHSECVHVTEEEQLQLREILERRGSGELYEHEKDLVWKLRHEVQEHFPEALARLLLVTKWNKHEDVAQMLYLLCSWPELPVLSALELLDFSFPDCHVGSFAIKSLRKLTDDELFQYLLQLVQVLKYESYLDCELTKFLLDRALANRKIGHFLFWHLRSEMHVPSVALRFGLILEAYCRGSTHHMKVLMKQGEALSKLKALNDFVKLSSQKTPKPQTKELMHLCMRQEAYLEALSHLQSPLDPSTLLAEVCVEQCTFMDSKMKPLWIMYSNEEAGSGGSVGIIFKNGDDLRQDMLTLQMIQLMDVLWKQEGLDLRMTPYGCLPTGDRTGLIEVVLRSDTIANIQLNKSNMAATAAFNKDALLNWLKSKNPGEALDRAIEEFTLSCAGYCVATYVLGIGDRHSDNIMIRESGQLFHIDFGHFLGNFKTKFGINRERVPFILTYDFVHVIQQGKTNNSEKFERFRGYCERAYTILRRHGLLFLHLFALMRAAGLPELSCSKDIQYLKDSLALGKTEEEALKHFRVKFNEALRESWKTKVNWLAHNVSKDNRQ
Sequence of PI3Kδ (P27986 whole entry partner, species assumed): as the sequence (P27986 whole entry partner, species assumed) above
Procedure: as §1, with “158” for “0.8”, “δ,” for “α, an inhibition ratio was calculated by”, “activity was used to calculate an inhibition ratio, which was” for “activity, and then”, “PI3Kδ” for “PI3Kα”
According to Example 4 above, a Km value for PI3Kδ was determined to calculate a Ki value.

CYP3A4 = target: T2, CYP3A4 (Homo sapiens, UniProt P08684); test: CYP3A4 fluorescence MBI test; type: in vitro ADME; conditions: difference in IC50 with 0 or 30 minutes pre-reaction; CYP3A4 expressed in E. coli, substrate 7-BFC
T2 construct: host or cells: E. coli
How it was run: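 E. coli-expressed CYP3A4 debenzylating 5.6 μmol/L 7-BFC to fluorescent 7-HFC (Ex 420/Em 535 nm) in K-Pi pH 7.4 at 25° C, 15 min reaction. NADPH pre-incubation of 0 or 30 min, with 10-fold dilution before reaction. IC50 from 0.625–20 μmol/L (6 points); (+) for an IC50 shift ≥5 μmol/L, (−) for ≤3 μmol/L.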

hERG channel (IKr) = target: T3, hERG channel (IKr) (Homo sapiens, UniProt Q12809); test: hERG test (whole-cell patch-clamp, IKr in HEK293 cells); type: cell-based; conditions: human, HEK293 cells expressing hERG channel, pH 7.4, inhibition of maximum tail current (IKr), compound 1 μM
T3 construct: expressed in transfected cells; host or cells: HEK293
How it was run: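 hERG-expressing HEK293 cells, automated whole-cell patch clamp: hold −80 mV, +50 mV for 2 s, then −50 mV for 2 s to record IKr tail current. Compound in extracellular solution (pH 7.4) for 10 min at room temperature; inhibition of maximum tail current calculated versus pre-application and compared with 0.1% DMSO vehicle.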

AKT phosphorylation = AKT phosphorylation inhibitory activity in MCP-1 stimulated THP-1 cells (sandwich ELISA); type: cell-based, Human; conditions: Homo sapiens, compound at 1 μmol/L, MCP-1 stimulation, read-out: AKT phosphorylation inhibition ratio
How it was run: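 THP-1 cells (6.7×10^6/mL in HBSS) were preincubated with compound at 1 μmol/L for 5 min at 37 °C, then stimulated for 60 s with HBSS containing 1.2 μg/mL MCP-1 and lysed. Phospho-Akt Ser473/AKT1 sandwich ELISA was read at A450. % inhibition: no compound = 100% activity, no MCP-1 = 0%.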

[5] = class symbols, read-out: PI3K γ Ki
[6] = class symbols, read-out: PI3K α Ki
[7] = class symbols, read-out: PI3K β Ki
[8] = class symbols, read-out: PI3K δ Ki

| SMILES | inhibition at 10 µM (PI3Kγ [1]) [%] | solubility at 16 h [2] [µM] | Ki (PI3Kγ [4]; [5]) [nM] | Ki (PI3Kγ [4]; read-out: PI3Kγ Ki value) [nM] | Ki (PI3Kα; [6]) [nM] | Ki (PI3Kβ; [7]) [nM] | Ki (PI3Kδ; [8]) [nM] | other results |
| --- | --- | --- | --- | --- | --- | --- | --- | --- |
| COc1cc(N2CCc3nc(NC(=O)Nc4ccsc4C(=O)O)sc3C2)nc(OC)n1 [Compound I-4] | 72 | 12.3 (≈ 5.69 µg/mL) |  |  |  |  |  | hLMS_ox(at 2 μM) % ([3]; compound 2 μM): 103% |
| COc1cc(N2CCc3nc(NC(=O)Nc4ccccc4C(=O)N(C)C(C)C)sc3C2)nc(OC)n1 [Compound I-13] | ≥ 95 | 15.4 (≈ 7.88 µg/mL) |  |  |  |  |  |  |
| COc1cc(N2CCc3nc(NC(=O)Nc4ccccc4C4=NC(C)(C)CO4)sc3C2)nc(OC)n1 [Compound I-14] | 94 |  | ≤ 300 | 54 | > 3000 | > 3000 | > 3000 | MBI (CYP3A4): (−) (When 3 μmol/L or less, the compound is shown as (−)) |
| COc1cc(N2CCc3nc(NC(=O)NC4=C(C(=O)NC(C)(C)C)CCC4)sc3C2)nc(OC)n1 [Compound I-28] | ≥ 95 |  | ≤ 300 | 47 | > 3000 | ≤ 3000 | ≤ 3000 |  |
| COc1cc(N2CCc3nc(NC(=O)Nc4ccccc4OCCN(C)C)sc3C2)nc(OC)n1 [Compound I-76] |  | 26.3 (≈ 13.1 µg/mL) |  |  |  |  |  |  |
| COc1cc(C2(F)CCc3nc(NC(=O)Nc4ccccc4C(=O)NC(C)C)sc3C2)nc(OC)n1 (stereo not drawn) [Compound I-83] | ≥ 95 |  | ≤ 300 | 110 | > 3000 | > 3000 | > 3000 | Ki (PI3Kα; read-out: PI3Kα Ki value): > 13000 nM; Ki (PI3Kβ; read-out: PI3Kβ Ki value): > 12000 nM; Ki (PI3Kδ; read-out: PI3Kδ Ki value): > 12000 nM; hLMS_ox(at 0.5 μM) % [3]: 89.1%; inhibition at 10 min, 1 µM (hERG channel (IKr)): 3.3% |
| COc1cc(N2CCc3nc(NC(=O)Nc4ccccc4OCCC(C)(C)C(=O)O)sc3C2)nc(OC)n1 [Compound I-100] | ≥ 95 | 34.4 (≈ 18.7 µg/mL) |  |  |  |  |  | hLMS_ox(at 0.5 μM) % [3]: 89.3% |
| COc1cc(N2CCc3nc(NC(=O)Nc4ccccc4C(=O)NC(C)CO)sc3C2)cnc1OC (stereo not drawn) [Compound I-104] |  | 39.6 (≈ 20.3 µg/mL) |  |  |  |  |  | hLMS_ox(at 0.5 μM) % [3]: 103% |
| CC(C)CCOc1ccccc1NC(=O)Nc1cc2n(n1)CCN2c1ccc2c(c1)CCN(C)C2=O [Compound I-112] |  |  | ≤ 3000 | 1100 | > 3000 | > 3000 | ≤ 3000 | Ki (PI3Kα; read-out: PI3Kα Ki value): 7500 nM; Ki (PI3Kβ; read-out: PI3Kβ Ki value): > 11000 nM; Ki (PI3Kδ; read-out: PI3Kδ Ki value): 2100 nM |
| CC(C)CCc1ccccc1NC(=O)Nc1cc2n(n1)CCN2c1ccc2c(c1)CCN(C)C2=O [Compound I-113] |  |  | ≤ 3000 | 2300 | > 3000 | > 3000 | ≤ 3000 |  |
| COc1cccc(-c2ccc3nc(NC(=O)Nc4ccccc4C(=O)NC(C)C)cn3n2)c1 [Compound I-123] |  |  | ≤ 30 | 25 | > 3000 | ≤ 3000 | ≤ 300 |  |
| CC(C)NC(=O)c1ccccc1NC(=O)Nc1cn2nc(-c3cccc(S(C)(=O)=O)c3)ccc2n1 [Compound I-125] |  |  | ≤ 30 | 13 | ≤ 3000 | ≤ 300 | ≤ 300 | hLMS_ox(at 0.5 μM) % [3]: 103%; inhibition at 10 min, 1 µM (hERG channel (IKr)): 1.3% |
| CC(C)CCOc1ccccc1NC(=O)Nc1cn2nc(-c3cccc(S(C)(=O)=O)c3)ccc2n1 [Compound I-126] |  |  | ≤ 300 | 61 | > 3000 | ≤ 3000 | ≤ 3000 |  |
| COc1nc(Cl)cc(N2CCc3nc(NC(=O)Nc4ccccc4C(=O)NC4CCCC4O)sc3C2)n1 (stereo not drawn) [Compound I-174] | ≥ 95 |  | ≤ 30 | 3.6 | > 3000 | ≤ 3000 | ≤ 3000 | inhibition at 1 µM (AKT phosphorylation): 81% |
| COc1cc(N2CCc3nc(NC(=O)NN4CCC[C@H]4C(=O)NC(C)C)sc3C2)nc(OC)n1 [Compound I-179] |  | > 50 |  |  |  |  |  |  |
| COc1cc(-c2ccc3nc(NC(=O)Nc4ccccc4OCCC(C)C)sc3c2)nc(OC)n1 [Compound I-213] |  |  | ≤ 300 | 58 | > 3000 | > 3000 | > 3000 |  |
| COc1cncc(-c2ccc3nc(NC(=O)Nc4ccccc4OCCC(C)C)nn3c2)c1 [Compound I-216] | ≥ 95 |  | ≤ 300 | 230 | > 3000 | ≤ 3000 | > 3000 |  |
| COc1cncc(-c2ccc3nc(NC(=O)Nc4ccccc4OCCC(C)C)sc3n2)c1 [Compound I-225] | ≥ 95 |  | ≤ 30 | 15 | > 3000 | ≤ 300 | > 3000 | MBI (CYP3A4): (−) (When 3 μmol/L or less, the compound is shown as (−)) |
| CC(=O)c1cccc(-c2cc(NC(=O)Nc3ccccc3C(=O)NC(C)C)nn2C)c1 [Compound I-227] | 87 | 36.8 (≈ 15.4 µg/mL) |  |  |  |  |  |  |
| Cc1cc(N2Cc3sc(NC(=O)Nc4ccccc4C(=O)NC(C)C)nc3C(C)C2)nc(Cl)n1 (stereo not drawn) [Compound I-229] | ≥ 95 |  | ≤ 30 | 9.4 | > 3000 | > 3000 | > 3000 |  |
